Columns and labels:
[1] = test system: Cord-blood derived CD34+HSPCs; experiment: SR1/IL-3 deprivation during final 3 days of HSPC-pDC differentiation: cell growth and viability; type: cell-based, human
Procedure: In addition, 1 μM of the small molecule inhibitor StemRegenin 1 (SR1, […] Technologies), 20 μg/mL streptomycin and 20 U/mL penicillin (Gibco, Life Technologies) and 50 μg/mL of ascorbic acid (Sigma Aldrich) was added. Cells were cultured at 37° C., 95% humidity, and 5% CO2 for 17 days, medium was replenished every 2-4 day. […] Viability and total cell numbers during expansion and differentiation of HSPCs was determined using a TC20 Automated Cell Counter (Bio-Rad).

HSPC-pDCs = experiment: SR1/IL-3 deprivation: flow cytometry of CD123 and CD303; type: cell-based, human
Procedure: Priming of HSPC-pDCs was performed as previously described [Laustsen, A., et al 2018]. […] HSPC-pDCs were primed with 250 U/mL IFN-β (PBL Assay Science) and 250 U/mL IFN-γ (Peprotech) or left unprimed. Cells were primed for 24 hours before being phenotypically and functionally characterized.
Flow cytometry was used to immunophenotype pDCs. Briefly, cells were spun down and resuspended in 25 μL TruStain FcBlock (Biolegend) diluted in cold FACS buffer (PBS with 2% FCS and 1 mM EDTA) and incubated cold for 15 minutes. Cells were subsequently stained 25 μL with the following antibodies: APC anti-human Lineage Cocktail (CD3 (UCHT1), CD14 (HCD14), CD16 (3G8), CD19 (HIB19), CD20 (2H7) and CD56 (HCD56), 348801, BioLegend), FITC anti-human CD11c (3.9, 301604, BioLegend), BV421 CD14 (HCD14, 325628, BioLegend), PE CD34 (581, 343506, BioLegend), APC-eFluor780 anti-human CD123 (6H6, 47-1239-42, eBioscience), PE-Cy7 anti-human CD303 (201a, 354214, BioLegend). Cells were stained for 30 min before being washed two times in FACS buffer and finally resuspended in 200 μL FACS Buffer. Fluorescence intensities were measured using the Attune NxT Flow Cytometer equipped with 4 lasers (405 nm, 488 nm, 561 nm, and 638 nm). Data analysis was done using FlowJo (Version 10.8.1, Tree Star, Ashland, OR, USA.

CC(C)n1cnc2c(NCCc3ccc(O)cc3)nc(-c3csc4ccccc34)nc21 [SR1, StemRegenin 1]
fold change in number of cells in culture after the 3 days ([1]; named supplement removed day 14-17, standard condition 2.31 (±0.49)): 2.38 (±0.23)
difference in the number of cells in culture between day 14 and 17 ([1]; named supplement removed from media day 14-17, standard condition 22.5×10^6 (±2.15×10^6)): 25.3×10^6 (±3.12×10^6) cells
CD303 surface expression (HSPC-pDCs; SR1 removed from media vs standard condition): no apparent difference
CD123 surface expression (HSPC-pDCs; SR1 removed from media, standard culturing condition MEI 1938): 988 (±391) MEI
